From PubChem BioAssay (NCI) come the findings set out here.

Among the test systems are 786-0 renal; CCRF-CEM leukemia; EKVX NSCLC; HCT-15 colon; HOP-92 NSCLC; HT29 colon; MDA-MB-231 breast; OVCAR-3 ovarian; T-47D breast; NCI-H522 lung.
What all share (test): growth of human tumour cells (NCI), 48 h

Values joined by “and” are separate entries in the source; they are usually repeats but may differ in a detail not shown here. Identical values can stand only once.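 Five concentrations, 48 hours, 96-well plates. Abbreviation: GI50, concentration required for 50% inhibition of growth. Definition used: TGI = concentration required for complete inhibition of growth.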

On to `CC[C@H](C)C(=O)O[C@H]1CCC=C2C=C[C@H](C)C(CCC3C[C@@H](O)CC(=O)O3)[C@H]21` (stereo not given in full), for which the GI50 with 786-0 renal was 8.71 µM; in the assay with CCRF-CEM leukemia it was over 100 µM; with EKVX NSCLC, 12.5 µM; in the assay with HCT-15 colon, 4.83 µM; with HOP-92 NSCLC it was 0.236 µM; in the assay on HT29 colon, 29 µM. Further, in the assay with MDA-MB-231 breast, the GI50 is 0.455 µM. Moreover, the TGI is over 100 µM in the assay with 786-0 renal; over 100 µM in the assay with CCRF-CEM leukemia; over 100 µM in the assay on EKVX NSCLC; over 100 µM with HCT-15 colon; 5.59 µM in the assay with HOP-92 NSCLC; over 100 µM in the assay on HT29 colon. In addition, the TGI with MDA-MB-231 breast is 12.5 µM; in the assay on OVCAR-3 ovarian, over 100 µM; in the assay with T-47D breast it was over 100 µM.

For `COc1ccc(Nc2ccnc(NCCCNc3ccnc4cc(Cl)ccc34)n2)cc1`, the GI50 with 786-0 renal is 1.49 µM; in the assay with CCRF-CEM leukemia, 0.34 µM; with HCT-15 colon, 0.397 µM; in the assay with HOP-92 NSCLC, 0.632 µM; in the assay on HT29 colon, 0.393 µM; in the assay with MDA-MB-231 breast it was 0.583 µM. The GI50 with NCI-H522 lung was 1.62 µM; in the assay with OVCAR-3 ovarian, 1.56 µM; in the assay on T-47D breast it was 1.55 µM. In addition, the TGI in the assay with 786-0 renal was determined as 2.93 µM; in the assay with CCRF-CEM leukemia it was 1.8 µM; in the assay with HCT-15 colon, 1.76 µM; with HOP-92 NSCLC, 2.65 µM; in the assay on HT29 colon, 2.2 µM; in the assay with MDA-MB-231 breast, 2.15 µM. For the same compound, the TGI in the assay on NCI-H522 lung stood at 3.67 µM; in the assay with OVCAR-3 ovarian, 3.24 µM; in the assay with T-47D breast, 3.71 µM.

As for `C=C[C@]1(C)C=C2C(=O)[C@@]3(O)OC(=O)[C@@]4(CCCC(C)(C)[C@H]34)[C@@]2(O)CC1`, the GI50 in the assay on 786-0 renal is 1.68 µM; with CCRF-CEM leukemia it was 0.383 µM; in the assay on HCT-15 colon, 0.79 µM; with HOP-92 NSCLC, 0.282 µM; with HT29 colon it was 2.12 µM; in the assay with MDA-MB-231 breast, 1.46 µM. Besides, the GI50 in the assay with NCI-H522 lung is 0.57 µM; in the assay with OVCAR-3 ovarian, 1.08 µM; in the assay with T-47D breast, 1.09 µM. The TGI was determined as 3.13 µM in the assay with 786-0 renal; 10.7 µM with CCRF-CEM leukemia; 3.05 µM with HCT-15 colon; 1.62 µM in the assay with HOP-92 NSCLC; 6.86 µM in the assay with HT29 colon; 3.43 µM in the assay on MDA-MB-231 breast. Also, the TGI is 2.03 µM in the assay with NCI-H522 lung, 2.52 µM with OVCAR-3 ovarian and 3.49 µM in the assay with T-47D breast.

Regarding `CCC[CH2][Sn]([CH2]CCC)([S]C1=NCCS1)[S]C1=NCCS1`, the GI50 in the assay on 786-0 renal is 0.22 µM; in the assay on CCRF-CEM leukemia, 0.0231 µM; with EKVX NSCLC, 1.34 µM; in the assay with HCT-15 colon it was 0.338 µM; in the assay with HOP-92 NSCLC it was 0.227 µM; with HT29 colon it was 1.07 µM. In addition, the values for the GI50 in the assay on NCI-H522 lung and in the assay with OVCAR-3 ovarian were 0.0133 µM and 0.563 µM, respectively. Also, the TGI with 786-0 renal is 0.663 µM; in the assay with CCRF-CEM leukemia, 0.226 µM; with EKVX NSCLC, 2.71 µM; with HCT-15 colon, 1.74 µM; in the assay with HOP-92 NSCLC, 0.529 µM; with HT29 colon, 2.58 µM. Moreover, the results for the TGI with NCI-H522 lung and in the assay with OVCAR-3 ovarian were 0.0562 µM and 1.87 µM, respectively.

Take `COc1cc(C(=O)n2nc(N3CCN(C)CC3)c3cc(N)ccc32)cc(OC)c1OC`: the GI50 in the assay on 786-0 renal was 4.42 µM; in the assay on CCRF-CEM leukemia it was 3.78 µM; in the assay with HCT-15 colon, 3.45 µM; with HOP-92 NSCLC, 6.4 µM; in the assay with HT29 colon, 3.65 µM; with MDA-MB-231 breast, 2.92 µM. Also, the GI50 is 2.01 µM in the assay with NCI-H522 lung, 2.39 µM in the assay with OVCAR-3 ovarian and over 100 µM in the assay on T-47D breast. In addition, the TGI in the assay on 786-0 renal is over 100 µM; in the assay with CCRF-CEM leukemia, over 100 µM; in the assay with HCT-15 colon, over 100 µM; with HOP-92 NSCLC, over 100 µM; with HT29 colon it was 14.9 µM; in the assay on MDA-MB-231 breast, 21.6 µM. In addition, the TGI in the assay with NCI-H522 lung is 8.87 µM; in the assay with OVCAR-3 ovarian, 5.62 µM; with T-47D breast, over 100 µM.

For the compound `ON(CCc1ccccn1)Cc1ccccc1`, the TGI in the assay on 786-0 renal, in the assay with EKVX NSCLC, with HCT-15 colon, in the assay with HOP-92 NSCLC, in the assay on HT29 colon and in the assay on MDA-MB-231 breast was over 100 µM in each case. Besides, the TGI in the assay on NCI-H522 lung, in the assay on OVCAR-3 ovarian and in the assay with T-47D breast was over 100 µM in each case.

On to `O=C(CC1(O)C(=O)Nc2c(Cl)cc(Cl)cc21)c1ccc2ccccc2c1` (stereo not given), for which the TGI is 23.8 µM in the assay on 786-0 renal; 39 µM in the assay on CCRF-CEM leukemia; 23.4 µM with EKVX NSCLC; 14.2 µM in the assay on HCT-15 colon; 36.2 µM with HOP-92 NSCLC; 18.5 µM in the assay with HT29 colon. Moreover, the figures for the TGI in the assay with NCI-H522 lung and with OVCAR-3 ovarian were 10.9 µM and 18.6 µM, respectively.

In the case of `Cc1ccc(S(=O)(=O)N/N=C(\C(=O)Nc2cccc([N+](=O)[O-])c2)c2nc3ccc([N+](=O)[O-])cc3[nH]c2=O)cc1`, the TGI in the assay on 786-0 renal, in the assay with CCRF-CEM leukemia, in the assay on EKVX NSCLC, in the assay with HCT-15 colon, in the assay on HOP-92 NSCLC and in the assay on HT29 colon was over 100 µM each time. Moreover, the TGI in the assay with NCI-H522 lung and in the assay with OVCAR-3 ovarian was over 100 µM in each case.

On to `O=C1c2ccccc2C(=O)c2nc(-c3ccccc3)c(-c3ccccc3)nc21`, for which the TGI in the assay on 786-0 renal, with CCRF-CEM leukemia, in the assay on EKVX NSCLC, with HCT-15 colon, in the assay on HOP-92 NSCLC and in the assay on HT29 colon was over 100 µM throughout. Besides, the figures for the TGI with NCI-H522 lung and in the assay on OVCAR-3 ovarian were over 100 µM and 13.2 µM, respectively.

For `CCCCCCCCCCCC(=O)OCC1OC(n2cc(F)c(=O)[nH]c2=O)C(N)C(O)C1O` (stereo not given), the TGI with 786-0 renal, with CCRF-CEM leukemia, in the assay on EKVX NSCLC, in the assay on HCT-15 colon, in the assay on HOP-92 NSCLC and with HT29 colon was over 100 µM each time. In addition, the TGI in the assay on NCI-H522 lung and in the assay with OVCAR-3 ovarian was over 100 µM each time.

Turning to `Nc1ccn([C@@H]2C=C(CO)[C@@H](O)[C@H]2O)c(=O)n1`, the GI50 in the assay with 786-0 renal is 0.257 µM; with EKVX NSCLC it was 2.77 µM; in the assay on MDA-MB-231 breast, 0.413 µM; with NCI-H522 lung, 0.0242 µM; in the assay on T-47D breast, 0.581 µM. The TGI in the assay on 786-0 renal was 500 µM; with CCRF-CEM leukemia it was 294 µM and > 625 µM; with EKVX NSCLC, 134 µM; in the assay on HCT-15 colon it was 483 µM and > 625 µM; in the assay with HT29 colon, 394 µM and > 625 µM; in the assay on MDA-MB-231 breast, 500 µM. Moreover, the TGI was 500 µM and > 625 µM in the assay on OVCAR-3 ovarian; 261 µM in the assay on T-47D breast.
